Columns and labels:
Bacteroides fragilis = test: Toxicity against Bacteroides fragilis assessed as inhibition of microbe growth; type: organism-based
Clostridioides difficile [1] = test: Antimicrobial activity against metronidazole-resistant Clostridium difficile; type: functional
Clostridioides difficile [2] = test: Antimicrobial activity against vancomycin-resistant Clostridium difficile; type: functional
Clostridioides difficile [3] = test: Antimicrobial activity against daptomycin-resistant Clostridium difficile ATCC 43596 infected in Syrian golden hamster model of Clostridium difficile-associated diarrhea assessed as protection against microbial infection by measuring survival at day 25 to 26 at 0.5 mg/kg treated once daily for 5 consecutive days starting 4 hrs after spore inoculation; type: functional

**Q.** Which MIC (Bacteroides fragilis) does the source give for `CCCCCc1ccc(/C(C)=C/C(=O)N[C@@H](Cc2c[nH]c3ccccc23)C(=O)N[C@H](CC(N)=O)C(=O)N[C@@H](CC(=O)O)C(=O)N[C@@H]2C(=O)NCC(=O)N[C@@H](CCCN)C(=O)N[C@@H](CC(=O)O)C(=O)N[C@H](C)C(=O)N[C@@H](CC(=O)O)C(=O)NCC(=O)N[C@H](CO)C(=O)N[C@@H]([C@@H](C)CC(=O)O)C(=O)N[C@@H](CC(=O)c3ccccc3N)C(=O)O[C@@H]2C)cc1` here?
**A.** Its MIC is “>= 8192 ug ml-1”.

**Q.** `Cc1ncc([N+](=O)[O-])n1CCO` [METRONIDAZOLE] was tested. Which MIC (Clostridioides difficile [1]) did it give?
**A.** Its MIC is ≥ 8 µg/mL.

**Q.** Which results are given for `CN[C@H](CC(C)C)C(=O)N[C@H]1C(=O)N[C@@H](CC(N)=O)C(=O)N[C@H]2C(=O)N[C@H]3C(=O)N[C@H](C(=O)N[C@H](C(=O)O)c4cc(O)cc(O)c4-c4cc3ccc4O)[C@H](O)c3ccc(c(Cl)c3)Oc3cc2cc(c3O[C@@H]2O[C@H](CO)[C@@H](O)[C@H](O)[C@H]2O[C@H]2C[C@](C)(N)[C@H](O)[C@H](C)O2)Oc2ccc(cc2Cl)[C@H]1O` [VANCOMYCIN]?
**A.** MIC (Clostridioides difficile [2]): ≥ 4 µg/mL; survival at 0.5 mg/kg (Clostridioides difficile [3]): 25%
